The values that follow come from patent US20050080113A1, “Medicinal compositions” (priority 2001, published 2005).

The structures appear in SMILES notation.

`CCc1nc(-c2cccc(Cl)c2)c(-c2ccnc(NC3CCCC3)c2)s1` [H 36-11, 4-[4-(3-chlorophenyl)-2-ethyl-1,3-thiazol-5-yl]-N-cyclopentyl-2-pyridylamine]: the melting point (commonly the temperature, or range, at which the solid turns liquid) was 110 to 111 °C.
In turn, `Cc1cccc(-c2nc(-c3ccc(S(C)(=O)=O)cc3)sc2-c2ccnc(N(C)C3CCCCC3)c2)c1` [H 37-2, N-cyclohexyl-N-methyl-4-[4 (3 methylphenyl)-2 (4 methylsulfonylphenyl)-1,3 thiazol-5-yl]-2 pyridylamine] had a melting point of 173 to 174 °C.
As for `Cc1cccc(-c2nc(-c3ccc(S(C)(=O)=O)cc3)sc2-c2ccnc(NCC3CCCCC3)c2)c1` [H 37-3, N-cyclohexylmethyl-4 [4-(3 methylphenyl)-2 (4 methylsulfonylphenyl)-1,3 thiazol-5-yl]-2 pyridylamine], the figure is 157 to 159 °C.
Compound `Cc1cccc(-c2nc(-c3ccc(S(C)(=O)=O)cc3)sc2-c2ccnc(N3CCCC3)c2)c1` [H 37-4, 4 (3 methylphenyl)-2 (4-methylsulfonylphenyl)-5 [2 (1 pyrrolidinyl)-4 pyridyl]-1,3-thiazole] yielded a melting point of 199 to 201 °C.
Turning to `Cc1cccc(-c2nc(-c3ccc(S(C)(=O)=O)cc3)sc2-c2ccnc(N3CCN(C)CC3)c2)c1` [H 37-5, 4 (3 methylphenyl)-5 [2-(4 methyl-1 piperazinyl)-4 pyridyl]-2 (4-methylsulfonylphenyl)-1,3 thiazole], the melting point lay within 153 to 154 °C.
In turn, `COc1ccc(-c2nc(NC(C)=O)sc2-c2ccnc(NC(C)=O)c2)cc1` [H 38, N-[5 (2 acetylamino-4 pyridyl)-4 (4 methoxyphenyl)-1,3-thiazol-2 yl]acetamide] had a melting point of 262 to 264 °C.
As for `CC(=O)Nc1nc(-c2cccc(C)c2)c(-c2ccnc(C)c2)s1` [H 39, N-[4-(3-methylphenyl)-5-(2-methyl-4-pyridyl)-1,3-thiazol-2-yl]acetamide], the figure is 230 to 231 °C; as for `CC(=O)Nc1nc(-c2cc(C)cc(C)c2)c(-c2ccnc(C)c2)s1` [H 40-1, N-[4 (3,5 dimethylphenyl)-5 (2 methyl-4 pyridyl)-1,3 thiazol-2 yl]acetamide], 236 to 237 °C; as for `CC(=O)Nc1nc(-c2cccc(C)c2)c(-c2cc(C)nc(C)c2)s1` [H 40-2, N-[5 (2,6 dimethyl-4-pyridyl)-4 (3 methylphenyl)-1,3 thiazol-2 yl]acetamide], 185 to 187 °C.
As for `CC(=O)Nc1nc(-c2cc(C)cc(C)c2)c(-c2cc(C)nc(C)c2)s1` [H 40-3, N-[4 (3,5 dimethylphenyl)-5 (2,6 dimethyl-4 pyridyl)-1,3 thiazol-2 yl]acetamide], the figure is 266 to 267 °C; as for `Cc1cccc(-c2nc(NC(=O)c3cccnc3)sc2-c2ccnc(C)c2)c1` [H 41, N-[4 (3 methylphenyl)-5 (2-methyl-4 pyridyl)-1,3 thiazol-2 yl]nicotinamide], 175 to 178 °C; as for `Cc1cc(C)cc(-c2nc(NC(=O)c3cccnc3)sc2-c2ccnc(C)c2)c1` [H 42-1, N-[4-(3,5-dimethylphenyl)-5-(2-methyl-4-pyridyl)-1,3-thiazol-2-yl]nicotinamide], 203 to 206 °C.
Then `Cc1cc(C)cc(-c2nc(NC(=O)c3cccnc3)sc2-c2cc(C)nc(C)c2)c1` [H 42-2, N-[4 (3,5 dimethylphenyl)-5 (2,6 dimethyl-4 pyridyl)-1,3 thiazol-2 yl]nicotinamide], with 267 to 268 °C; and `Cc1cccc(-c2nc(NC(=O)c3cccnc3)sc2-c2ccnc(NC3CCCCC3)c2)c1` [H 42-3, N-[5 (2 cyclohexylamino-4-pyridyl)-4 (3 methylphenyl)-1,3 thiazol-2 yl]nicotinamide], with 201 to 203 °C; and `Cc1cccc(-c2nc(NC(=O)c3cccnc3)sc2-c2ccnc(NC3CCCC3)c2)c1` [H 42-4, N-[5 (2 cyclopentylamino-4 pyridyl)-4 (3 methylphenyl)-1,3 thiazol-2 yl]nicotinamide], with 215 to 216 °C.
Turning to `O=C(Nc1nc(-c2ccc(F)cc2)c(-c2ccnc(NC3CCCCC3)c2)s1)c1cccnc1` [H 42-5, N-[5 (2 cyclohexylamino-4-pyridyl)-4 (4 fluorophenyl)-1,3 thiazol-2 yl]nicotinamide], the melting point was in the range of 136 to 138 °C.
As for `Cc1cccc(-c2nc(NC(=O)c3cccnc3)sc2-c2ccnc(F)c2)c1` [H 42-6, N-[5 (2 fluoro-4 pyridyl)-4 (3 methylphenyl)-1,3 thiazol-2 yl]nicotinamide], the figure is 229 to 231 °C.
As for `Cc1cc(-c2sc(NC(=O)c3cccnc3)nc2-c2ccc(F)cc2)ccn1` [H 42-7, N-[4 (4 fluorophenyl)-5-(2 methyl-4 pyridyl)-1,3 thiazol-2 yl]nicotinamide], the figure is 261 to 262 °C; as for `Cc1cccc(-c2nc(N(C)C(=O)c3cccnc3)sc2-c2ccnc(NC3CCCCC3)c2)c1` [H 42-8, N-[5 (2 cyclohexylamino-4-pyridyl)-4 (3 methylphenyl)-1,3 thiazol-2 yl]-N-methylnicotinamide], 147 to 148 °C.
Then `Cc1cccc(-c2nc(N(C)C(=O)c3cccnc3)sc2-c2ccnc(NC3CCCC3)c2)c1` [H 42-9, N-[5 (2 cyclopentylamino-4 pyridyl)-4 (3 methylphenyl)-1,3 thiazol-2 yl]N-methylnicotinamide], with 148 to 149 °C; and `Cc1cccc(-c2nc(NC(=O)c3ccc(Cl)nc3)sc2-c2ccnc(C)c2)c1` [H 43, 6 chloro-N-[4 (3-methylphenyl)-5 (2 methyl-4 pyridyl)-1,3 thiazol-2-yl]nicotinamide], with 228 to 230 °C; and `Cc1cccc(-c2nc(NC(=O)c3ccc(Cl)nc3)sc2-c2ccnc(NC3CCCCC3)c2)c1` [H 44-1, 6 chloro-N-[5 (2-cyclohexylamino-4 pyridyl)-4 (3 methylphenyl)-1,3 thiazol-2-yl]nicotinamide], with 255 to 256 °C.
In the case of `Cc1cccc(-c2nc(NC(=O)c3ccc(Cl)nc3)sc2-c2ccnc(NC3CCCC3)c2)c1` [H 44-2, 6 chloro-N-[5 (2-cyclopentylamino-4 pyridyl)-4 (3 methylphenyl)-1,3 thiazol-2-yl]nicotinamide], the melting point lay within 211 to 212 °C.
Then `Cc1cccc(-c2nc(N(C)C(=O)c3ccc(Cl)nc3)sc2-c2ccnc(NC3CCCCC3)c2)c1` [H 44-4, 6 chloro-N-[5 (2-cyclohexylamino-4 pyridyl)-4 (3 methylphenyl)-1,3 thiazol-2-yl]-N-methylnicotinamide], with 171 to 172 °C; and `Cc1cccc(-c2nc(NC(=O)c3ccc(C)nc3)sc2-c2ccnc(C)c2)c1` [H 45, 6 methyl-N-[4 (3-methylphenyl)-5 (2 methyl-4 pyridyl)-1,3 thiazol-2-yl]nicotinamide], with 233 to 234 °C; and `Cc1cccc(-c2nc(NC(=O)c3ccc(C)nc3)sc2-c2ccnc(NC3CCCCC3)c2)c1` [H 46-1, N-[5 (2 cyclohexylamino-4-pyridyl)-4 (3 methylphenyl)-1,3 thiazol-2 yl]-6-methylnicotinamide], with 242 to 243 °C.
Then `Cc1cccc(-c2nc(NC(=O)c3ccc(C)nc3)sc2-c2ccnc(NC3CCCC3)c2)c1` [H 46-2, N-[5 (2 cyclopentylamino-4 pyridyl)-4 (3 methylphenyl)-1,3 thiazol-2 yl]-6-methylnicotinamide], with 213 to 214 °C.
As for `COc1ccc(C(=O)Nc2nc(-c3cccc(C)c3)c(-c3ccnc(C)c3)s2)cn1` [H 47, 6 methoxy-N-[4 (3-methylphenyl)-5 (2 methyl-4 pyridyl)-1,3 thiazol-2-yl]nicotinamide], the figure is 224 to 226 °C; as for `COc1ccc(C(=O)Nc2nc(-c3cccc(C)c3)c(-c3ccnc(NC4CCCCC4)c3)s2)cn1` [H 48-1, N-[5 (2 cyclohexylamino-4-pyridyl)-4 (3 methylphenyl)-1,3 thiazol-2 yl]-6-methoxynicotinamide], 191 to 192 °C; as for `COc1ccc(C(=O)Nc2nc(-c3cccc(C)c3)c(-c3ccnc(NC4CCCC4)c3)s2)cn1` [H 48-2, N-[5 (2 cyclopentylamino-4 pyridyl)-4 (3 methylphenyl)-1,3-thiazol-2 yl]-6-methoxynicotinamide], 219 to 221 °C.
In turn, `COc1ccc(C(=O)Nc2nc(-c3cc(C)cc(C)c3)c(-c3ccnc(C)c3)s2)cn1` [H 48-3, N-[4-(3,5-dimethylphenyl)-5-(2-methyl-4-pyridyl)-1,3-thiazol-2-yl]-6-methoxynicotinamide] yielded a melting point of 242 to 244 °C.
Then `COc1ncccc1C(=O)Nc1nc(-c2cccc(C)c2)c(-c2ccnc(C)c2)s1` [H 49, 2 methoxy-N-[4 (3-methylphenyl)-5 (2 methyl-4 pyridyl)-1,3 thiazol-2-yl]nicotinamide], with 169 to 170 °C; and `COc1ccc(-c2nc(NC(C)=O)sc2-c2ccnc(N)c2)cc1` [H 50, N-[5 (2 amino-4 pyridyl)-4-(4 methoxyphenyl)-1,3 thiazol-2 yl]acetamide], with 247 to 250 °C; and `COc1ccc(-c2nc(NC(=O)c3ccccc3)sc2-c2ccnc(N)c2)cc1` [H 51, N-[5 (2 amino-4 pyridyl)-4-(4 methoxyphenyl)-1,3 thiazol-2 yl]benzamide], with 219 to 222 °C.
On to `Cc1cccc(-c2sc(NC(=O)Nc3ccccc3)nc2-c2cc(C)nc(C)c2)c1` [H 52, N-[4 (2,6 dimethyl-4 pyridyl)-5 (3 methylphenyl)-1,3 thiazol-2 yl]-N′-phenylurea], for which the melting point lay in the range of 173 to 174 °C.
As for `Cc1cc(C)cc(-c2nc(NC(=O)Nc3ccccc3)sc2-c2cc(C)nc(C)c2)c1` [H 53-1, N-[4 (3,5 dimethylphenyl)-5 (2,6 dimethyl-4 pyridyl)-1,3 thiazol-2 yl]-N′-phenylurea], the figure is 219 to 222 °C.
As for `Cc1cccc(-c2nc(NC(=O)Nc3ccccc3)sc2-c2ccnc(NC3CCCCC3)c2)c1` [H 53-2, N-[5 (2 cyclohexylamino-4-pyridyl)-4 (3 methylphenyl)-1,3 thiazol-2 yl]-N′-phenylurea], the figure is 198 to 199 °C.
